Inconclusive results and toxic doses are left out.
Tested on: BDF1 mice, P388 leukemia ip, median survival T/C
Test: NCI In Vivo Anticancer Drug Screen. Data for tumor model P388 Leukemia (intraperitoneal) in B6D2F1 (BDF1) mice
Settings: endpoint: median survival time, higher = longer survival
Procedure, shortened: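 Transplantable tumour in mice; compound vs vehicle dosing; survival scored; ratio of treated to control reported.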

[1] = dose: 50.0 mg/kg/injection, schedule: Q01DX009 (ip), vehicle: saline with Tween-80
[2] = dose: 100.0 mg/kg/injection, schedule: Q01DX009 (ip), vehicle: saline with Tween-80
[3] = dose: 200.0 mg/kg/injection, schedule: Q01DX009 (ip), vehicle: saline with Tween-80

With `CCOC(=O)C(CC(C)C)NC(=O)C(Cc1ccc(N(CCCl)CCCl)cc1)NC(C)=O` (centres undefined) the T/C (dose: 1.0 mg/kg/injection, schedule: Q01DX009 (ip), vehicle: other) was 104 % of control, the T/C (dose: 2.0 mg/kg/injection, schedule: Q01DX009 (ip), vehicle: other) was 109 % of control and the T/C (dose: 8.0 mg/kg/injection, schedule: Q01DX009 (ip), vehicle: other) was 163 % of control. For the same compound, the T/C (dose: 32.0 mg/kg/injection, schedule: Q01DX009 (ip), vehicle: other) was 163 % of control, the T/C (dose: 64.0 mg/kg/injection, schedule: Q01DX009 (ip), vehicle: other) was 172 % of control and the T/C (dose: 128.0 mg/kg/injection, schedule: Q01DX009 (ip), vehicle: other) was 195 % of control. For the same compound, the T/C (dose: 256.0 mg/kg/injection, schedule: Q01DX009 (ip), vehicle: other) was 89 % of control.

With `COc1cc([C@@H]2c3cc4c(c(OC)c3C[C@H]3COC(=O)[C@@H]32)OCO4)cc(OC)c1OC` the T/C (dose: 12.5 mg/kg/injection, schedule: Q01DX001 (ip), vehicle: other) was 105 % of control, the T/C (dose: 12.5 mg/kg/injection, schedule: Q01DX010 (ip), vehicle: saline) was 172 % of control and the T/C (dose: 25.0 mg/kg/injection, schedule: Q01DX001 (ip), vehicle: saline) was 100 % of control. The T/C (dose: 25.0 mg/kg/injection, schedule: Q01DX010 (ip), vehicle: saline) was 104 % of control, the T/C (dose: 50.0 mg/kg/injection, schedule: Q01DX001 (ip), vehicle: saline) was 113 % of control and the T/C (dose: 50.0 mg/kg/injection, schedule: Q01DX010 (ip), vehicle: other) was 90 % of control. For the same compound, the T/C (dose: 100.0 mg/kg/injection, schedule: Q01DX001 (ip), vehicle: saline) was 113 % of control and the T/C (dose: 200.0 mg/kg/injection, schedule: Q01DX001 (ip), vehicle: saline) was 118 % of control.

For `CCCCCCCCCCCCCCSC1CC(=O)OC1=O` (centres undefined), the T/C [1] was 98 % of control, the T/C [2] was 91 % of control and the T/C [3] was 96 % of control.

In the case of `CC(C)=CC(=O)OCC1CC[N+](C)(C)C1` (centres undefined), the T/C (dose: 25.0 mg/kg/injection, schedule: Q01DX009 (ip), vehicle: saline) is reported as 111 % of control and the T/C (dose: 50.0 mg/kg/injection, schedule: Q01DX009 (ip), vehicle: saline) is reported as 100 % of control.

With `CCOC(=O)/C(C#N)=C\c1cc(=O)c(OC)co1` the T/C (dose: 100.0 mg/kg/injection, schedule: Q01DX001 (ip), vehicle: Klucel (hydroxypropylcellulose) (HPC)) was 90 % of control, the T/C (dose: 200.0 mg/kg/injection, schedule: Q01DX001 (ip), vehicle: Klucel (hydroxypropylcellulose) (HPC)) was 100 % of control and the T/C (dose: 400.0 mg/kg/injection, schedule: Q01DX001 (ip), vehicle: Klucel (hydroxypropylcellulose) (HPC)) was 100 % of control.

For `COC(=O)C1(Br)CCC1(Br)C(=O)OC` (centres undefined), the T/C (dose: 50.0 mg/kg/injection, schedule: Q01DX009 (ip), vehicle: Klucel (hydroxypropylcellulose) (HPC)) was 100 % of control, the T/C (dose: 100.0 mg/kg/injection, schedule: Q01DX001 (ip), vehicle: other) was 100 % of control and the T/C (dose: 100.0 mg/kg/injection, schedule: Q01DX009 (ip), vehicle: Klucel (hydroxypropylcellulose) (HPC)) was 109 % of control. The T/C (dose: 100.0 mg/kg/injection, schedule: Q04DX003 (ip), vehicle: Klucel (hydroxypropylcellulose) (HPC)) was 109 % of control, the T/C (dose: 200.0 mg/kg/injection, schedule: Q01DX001 (ip), vehicle: other) was 95 % of control and the T/C (dose: 200.0 mg/kg/injection, schedule: Q01DX009 (ip), vehicle: Klucel (hydroxypropylcellulose) (HPC)) was 113 % of control. For the same compound, the T/C (dose: 200.0 mg/kg/injection, schedule: Q04DX003 (ip), vehicle: Klucel (hydroxypropylcellulose) (HPC)) was 109 % of control, the T/C (dose: 400.0 mg/kg/injection, schedule: Q01DX001 (ip), vehicle: other) was 112 % of control and the T/C (dose: 400.0 mg/kg/injection, schedule: Q04DX003 (ip), vehicle: Klucel (hydroxypropylcellulose) (HPC)) was 113 % of control.

`OCC1=CCCCC1` was tested, and the T/C [1] was 106 % of control, the T/C [2] was 98 % of control and the T/C [3] was 104 % of control.

In the case of `COc1ccc(-c2noc(=O)c3ccccc23)cc1`, the T/C [1] is reported as 102 % of control, the T/C [2] is reported as 100 % of control and the T/C [3] is reported as 114 % of control.

With `Cc1c2oc3c(C)ccc(C(=O)NC(C)Cc4ccccc4)c3nc-2c(C(=O)NC(C)Cc2ccccc2)c(N)c1=O` (centres undefined) the T/C (dose: 100.0 mg/kg/injection, schedule: Q04DX002 (ip), vehicle: DMSO) was 87 % of control and the T/C (dose: 200.0 mg/kg/injection, schedule: Q04DX002 (ip), vehicle: DMSO) was 92 % of control.

In the case of `O=S(=O)(O)O.[Ga]`, the T/C (dose: 8.25 mg/kg/injection, schedule: Q01DX009 (ip), vehicle: saline sonified) is reported as 100 % of control, the T/C (dose: 50.0 mg/kg/injection, schedule: Q04DX003 (ip), vehicle: saline with Tween-80) is reported as 90 % of control and the T/C (dose: 100.0 mg/kg/injection, schedule: Q04DX003 (ip), vehicle: saline with Tween-80) is reported as 95 % of control. For the same compound, the T/C (dose: 134.0 mg/kg/injection, schedule: Q04DX003 (ip), vehicle: saline with Tween-80) was 92 % of control, the T/C (dose: 200.0 mg/kg/injection, schedule: Q04DX003 (ip), vehicle: saline with Tween-80) was 123 % of control and the T/C (dose: 300.0 mg/kg/injection, schedule: Q04DX003 (ip), vehicle: saline with Tween-80) was 96 % of control.

In the case of `CCCCCCC(=O)CC(SCC)c1ccc(Cl)cc1` (centres undefined), the T/C [1] is reported as 98 % of control, the T/C [2] is reported as 102 % of control and the T/C [3] is reported as 112 % of control.

Reference: PubChem BioAssay AID328 (DTP/NCI, 2004)
